Measured values published in patent US20180020662A1, “Substituted 1-cycloalkyl-2-oxotetrahydroquinolin-6-ylsulfonamides or salts thereof and use thereof to increase stress tolerance in plants” (BAYER CROPSCIENCE AKTIENGESELLSCHAFT, priority 2015, published 2018).

Each molecule was assayed against T1, phosphatase ABI1 via the co-regulator RCAR11/PYR1 (Arabidopsis thaliana, UniProt O49686+P49597) (assay: In vitro assay: inhibition of ABI1 dephosphorylation of 4-methylumbelliferyl phosphate (MUP), fluorescence). Conditions: concentration of 5 mM of the substance in DMSO and water, 35° C., 20 minutes.
T1 sequence (O49686 1-191): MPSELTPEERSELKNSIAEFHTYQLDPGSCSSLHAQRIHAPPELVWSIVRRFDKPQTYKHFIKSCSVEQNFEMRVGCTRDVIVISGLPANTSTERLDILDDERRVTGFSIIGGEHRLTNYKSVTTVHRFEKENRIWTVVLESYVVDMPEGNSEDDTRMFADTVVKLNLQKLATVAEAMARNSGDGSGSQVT
T1 sequence (P49597 1-434): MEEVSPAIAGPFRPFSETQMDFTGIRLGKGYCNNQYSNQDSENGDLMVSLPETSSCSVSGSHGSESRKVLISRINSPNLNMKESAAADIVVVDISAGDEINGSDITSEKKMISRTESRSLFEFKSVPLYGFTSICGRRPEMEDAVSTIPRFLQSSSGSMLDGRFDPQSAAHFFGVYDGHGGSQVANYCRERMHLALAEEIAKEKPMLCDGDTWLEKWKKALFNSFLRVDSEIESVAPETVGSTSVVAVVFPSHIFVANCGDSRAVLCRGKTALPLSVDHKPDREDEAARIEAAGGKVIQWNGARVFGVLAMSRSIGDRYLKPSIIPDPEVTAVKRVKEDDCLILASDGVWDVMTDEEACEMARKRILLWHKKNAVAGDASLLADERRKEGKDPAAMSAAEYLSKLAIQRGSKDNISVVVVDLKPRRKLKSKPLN
Assay type: biochemical
Source text: Effects of the phytohormone abscisic acid (ABA) on the behavior of plants under abiotic stress and the mechanism of action of ABA are described in the literature (cf. Abrams et al., WO97/23441, Park et al. Science, 2009, 324, 1068; Grill et al. Science, 2009, 324, 1064; Tanokura et al. Biophysics, 2011, 7, 123; Schroeder et al. Plant J. 2010, 61, 290). Therefore, it is possible with the aid of a suitable in vitro test system to derive a correlation between the action of ABA and the stress response of a plant under abiotic stress. In the event of water deficiency (drought stress), plants form the phytohormone abscisic acid (ABA). This binds, along with a co-regulator (Regulatory Component of ABA-Receptor=RCAR according to Grill et al. Science, 2009, 324, 1064 or PYR/PYL according to Cutler et al. Science, 2009, 324, 1068), to a phosphatase (e.g. ABI1, a type 2C protein phosphatase, also abbreviated to PP2C) and inhibits its activity. As a result, a “downstream” kinase (e.g. SnRK2) is no longer dephosphorylated. This kinase, which is thus active, via phosphorylation of transcription factors (e.g. AREB/ABF, cf. Yoshida et al Plant J. 2010, 61, 672), switches on a genetic protection program to increase drought stress tolerance. The assay described hereinafter utilizes the inhibition of the phosphatase ABI1 via the co-regulator RCAR11/PYR1 aus Arabidopsis thaliana. For the determination of activity, the dephosphorylation of 4-methylumbelliferyl phosphate (MUP) was measured at 460 nm. The in vitro assay was conducted in Greiner 384-well PS microplates F-well, using two controls: a) 0.5% dimethyl sulfoxide (DMSO) and b) 5 μM abscisic acid (ABA). The assay described here was generally conducted with substance concentrations of the appropriate chemical test substances in a concentration range of 0.1 μM to 100 μM in a solution of DMSO and water. The substance solution thus obtained, if necessary, was stirred with esterase from porcine liver (EC 3.1.1.1) at room temperature for 3 h and centrifuged at 4000 rpm for 30 min. A total volume of 45 μl was introduced into each cavity of the microplate, having the following composition: • 1) 5 μl of substance solution, i.e. a) DMSO 5% or b) abscisic acid solution or c) the corresponding example compound of the general formula (I) dissolved in 5% DMSO. • 2) 20 μl of enzyme buffer mix, composed of a) 40% by vol. of enzyme buffer (10 ml contain equal proportions by volume of 500 mM Tris-HCl pH 8, 500 mM NaCl, 3.33 mM MnCl2, 40 mM dithiothreitol (DTT)), b) 4% by vol. of ABI1 dilution (protein stock solution was diluted so as to give, after addition, a final concentration in the assay of 0.15 μg ABI1/well), c) 4% by vol. of RCAR11 dilution (enzyme stock was diluted so as to give, on addition of the dilution to the enzyme buffer mix, a final concentration in the assay of 0.30 μg enzyme/well), d) 5% by vol. of Tween20 (1%), e) 47% by vol. H2O bi-dist. • 3) 20 μl of substrate mix, composed of a) 10% by vol. of 500 mM Tris-HCl pH 8, b) 10% by vol. of 500 mM NaCl, c) 10% by vol. of 3.33 mM MnCl2, d) 5% by vol. of 25 mM MUP, 5% by vol. of Tween20 (1%), 60% by vol. of H2O bi-dist.
Enzyme buffer mix and substrate mix were made up 5 minutes prior to the addition and warmed to a temperature of 35° C. On completion of pipetting of all the solutions and on completion of mixing, the plate was incubated at 35° C. for 20 minutes. Finally, a relative fluorescence measurement was made at 35° C. with a BMG Labtech “POLARstar Optima” microplate reader using a 340/10 nm excitation filter and a 460 nm emission filter. The efficacy of the compounds of the general formula (I) is reported in the table which follows using abscisic acid […] as comparative substance (no. 38) according to the following classification: ++++(inhibition ≧90%), +++(90% >inhibition ≧70%), ++(70% >inhibition ≧50%), +(50% >inhibition ≧30%). […]

SMILES | ABI1 inhibition
Cc1ccc(CS(=O)(=O)Nc2ccc3c(c2)CCC(=O)N3C2(C)CC2)cc1 [A1-152] | ++++ (inhibition ≧90%)
CC1(N2C(=O)CCc3cc(NS(=O)(=O)Cc4ccc(F)cc4)ccc32)CC1 [A1-158] | ++++ (inhibition ≧90%)
Cc1ccc(CS(=O)(=O)Nc2ccc3c(c2)CCC(=O)N3C2(C3CC3)CC2)cc1 [A3-152, N-{1-[1,1′-bi(cyclopropyl)-1-yl]-2-oxo-1,2,3,4-tetrahydroquinolin-6-yl}-1-(4-methylphenyl)methanesulfonamide] | ++++ (inhibition ≧90%)
Cc1cccc(CS(=O)(=O)Nc2ccc3c(c2)CCC(=O)N3C2(C3CC3)CC2)c1 [A3-153] | +++ (90% >inhibition ≧70%)
O=C1CCc2cc(NS(=O)(=O)Cc3cccc(Cl)c3)ccc2N1C1(C2CC2)CC1 [A3-166] | +++ (90% >inhibition ≧70%)
CCc1ccc(CS(=O)(=O)Nc2ccc3c(c2)CCC(=O)N3C2(C3CC3)CC2)cc1 [A3-325] | ++++ (inhibition ≧90%)
O=C1CCc2cc(NS(=O)(=O)Cc3cc(F)cc(F)c3)ccc2N1C1CC1C1CC1 (stereo not drawn) [A16-164] | ++ (70% >inhibition ≧50%)
Cc1ccc(S(=O)(=O)Nc2ccc3c(c2)CCC(=O)N3C23CC(C2)C3)cc1 [A30-50] | ++ (70% >inhibition ≧50%)
Cc1ccc(CS(=O)(=O)Nc2ccc3c(c2)CCC(=O)N3C23CC(C2)C3)cc1 [A30-152] | ++++ (inhibition ≧90%)
O=C1CCc2cc(NS(=O)(=O)Cc3cccc(F)c3)ccc2N1C12CC(C1)C2 [A30-159] | +++ (90% >inhibition ≧70%)
O=C1CCc2cc(NS(=O)(=O)Cc3cccc(Cl)c3)ccc2N1C12CC(C1)C2 [A30-166] | ++ (70% >inhibition ≧50%)
O=C1CCc2cc(NS(=O)(=O)Cc3ccc(C(F)(F)F)cc3)ccc2N1C12CC(C1)C2 [A30-178, N-[1-(Bicyclo[1.1.1]pent-1-yl)-2-oxo-1,2,3,4-tetrahydroquinolin-6-yl]-1-[4-(trifluoromethyl)phenyl]methanesulfonamide] | ++++ (inhibition ≧90%)
N#Cc1ccc(CS(=O)(=O)Nc2ccc3c(c2)CCC(=O)N3C23CC(C2)C3)cc1 [A30-181] | ++++ (inhibition ≧90%)
N#Cc1ccc(CS(=O)(=O)Nc2ccc3c(c2)CCC(=O)N3C2CC3(CCC3)C2)cc1 [A33-181, 1-(4-Cyanophenyl)-N-[2-oxo-1-(spiro[3.3]hept-2-yl)-1,2,3,4-tetrahydroquinolin-6-yl]methanesulfonamide] | +++ (90% >inhibition ≧70%)
CC1=CC(=O)CC(C)(C)[C@@]1(O)/C=C/C(C)=C\C(=O)O [abscisic acid, reference compound] | ++++ (inhibition ≧90%)

The remaining lines, values ahead:

ABI1 inhibition | SMILES
++++ (inhibition ≧90%) | Cc1ccc(CS(=O)(=O)Nc2ccc3c(c2)CCC(=O)N3C2CC2C2CC2)cc1 (stereo not drawn) [A16-152, N-{1-[1,1′-bi(cyclopropyl)-2-yl]-2-oxo-1,2,3,4-tetrahydroquinolin-6-yl}-1-(4-methylphenyl)methanesulfonamide]
+++ (90% >inhibition ≧70%) | O=C1CCc2cc(NS(=O)(=O)Cc3ccc(F)cc3)ccc2N1C1CC1C1CC1 (stereo not drawn) [A16-158]
++++ (inhibition ≧90%) | O=C1CCc2cc(NS(=O)(=O)Cc3ccc(Cl)cc3)ccc2N1C1CC1C1CC1 (stereo not drawn) [A16-165]
+++ (90% >inhibition ≧70%) | CC(C)(C)c1ccc(CS(=O)(=O)Nc2ccc3c(c2)CCC(=O)N3C2CC2C2CC2)cc1 (stereo not drawn) [A16-332]
++++ (inhibition ≧90%) | Cc1ccc(CS(=O)(=O)Nc2ccc3c(c2)CCC(=O)N3C2CC(C)C2)cc1 (stereo not drawn) [A26-152]
++++ (inhibition ≧90%) | CC1CC(N2C(=O)CCc3cc(NS(=O)(=O)Cc4cc(F)cc(F)c4)ccc32)C1 (stereo not drawn) [A26-164]
++++ (inhibition ≧90%) | CC1CC(N2C(=O)CCc3cc(NS(=O)(=O)Cc4ccc(Cl)cc4)ccc32)C1 (stereo not drawn) [A26-165, 1-(4-Chlorophenyl)-N-[1-(3-methylcyclobutyl)-2-oxo-1,2,3,4-tetrahydroquinolin-6-yl]methanesulfonamide]
++++ (inhibition ≧90%) | CC1CC(N2C(=O)CCc3cc(NS(=O)(=O)Cc4ccc([N+](=O)[O-])cc4)ccc32)C1 (stereo not drawn) [A26-175]
++++ (inhibition ≧90%) | CC1CC(N2C(=O)CCc3cc(NS(=O)(=O)Cc4cccc(C#N)c4)ccc32)C1 (stereo not drawn) [A26-182]
++++ (inhibition ≧90%) | CC1CC(N2C(=O)CCc3cc(NS(=O)(=O)Cc4ccc(C(C)(C)C)cc4)ccc32)C1 (stereo not drawn) [A26-332]
+++ (90% >inhibition ≧70%) | O=C1CCc2cc(NS(=O)(=O)Cc3ccc(Cl)cc3)ccc2N1C1CC2(CCC2)C1 [A33-165]

The molecules below were run on Triticum aestivum (assay: Drought stress test on potted crop plants, spray application, visual scoring against stressed control plants). Conditions: dosage 25 g/ha, mean of at least three repeats.
Assay type: in vivo
Set-up: key: 0: no positive effect; +: slight positive effect; ++: clear positive effect; +++: strong positive effect
Procedure: Seeds of monocotyledonous and dicotyledonous crop plants were sown in sandy loam in plastic pots, covered with soil or sand and cultivated in a greenhouse under good growth conditions. The test plants are treated at the early leaf stage (BBCH10-BBCH13). To assure uniform water supply before commencement of stress, the potted plants were supplied with water by dam irrigation prior to substance application. The inventive compounds were first formulated as wettable powders (WP) or dissolved in a solvent mixture. The further dilution was effected with water supplemented with 0.2% wetting agent (e.g. agrotin). The finished spray liquor was sprayed onto the green parts of the plant at an equivalent water application rate of 600 I/ha. Substance application was followed immediately by stress treatment of the plants. Drought stress was induced by gradual drying out under the following conditions: “Day”: 14 hours with illumination at […]. “Night”: 10 hours without illumination at […]. The duration of the respective stress phases was guided mainly by the condition of the stressed control plants. It was ended (by re-irrigating and transfer to a greenhouse with good growth conditions) as soon as irreversible damage was observed on the stressed control plants. The end of the stress phase was followed by an about 4-7-day recovery phase, during which the plants were once again kept under good growth conditions in a greenhouse. The duration of the recovery phase was guided mainly by when the trial plants had attained a state which enabled visual scoring of potential effects, and was therefore variable. Once this juncture had been reached, the appearance of the plants treated with test substances was recorded in comparison to the stressed control plants by the following categories: • 0 no positive effect • + slight positive effect • ++ clear positive effect • +++ strong positive effect In order to rule out any influence on the effects observed by any fungicidal or insecticidal action of the test compounds, it was additionally ensured that the tests proceeded without fungal infection or insect infestation. The values reported in tables A-1 and A-2 below are mean values of the results from at least three repeats. Effects of selected compounds of the general formula (I) under drought stress according to the following tables A-1 and A-2: In the above tables: BRSNS =Brassica napus TRZAS =Triticum aestivum

SMILES | Effect (TRZAS)
CC1(N2C(=O)CCc3cc(NS(=O)(=O)c4ccc(C#N)cc4)ccc32)CC1 [A1-45] | +
